Key:
Assay in all cases: Postemergence glyphosate tolerance, visual injury
Assay type in all cases: in vivo, Arabidopsis thaliana
[1] = system: Arabidopsis transformed with TraP4 v5::dgt-14 (pDAB107526); conditions: 2 weeks after application
Excerpt: (§1) Transgenic T1 Arabidopsis plants containing the dgt-14 transgene were sprayed with differing rates of glyphosate. A distribution of varying concentrations of glyphosate rates, including elevated rates, were applied in this study to determine the relative levels of resistance (105, 420, 1,680 or 3,360 g ae/ha). The typical 1× field usage rate of glyphosate is 1,120 g ae/ha. The T1 Arabidopsis plants that were used in this study were variable in copy number for the dgt-14 transgene. The low copy dgt-14 T1 Arabidopsis plants were identified using the molecular confirmation assays described above, and self-pollinated and used to produce T2 plants.
(§2) The Arabidopsis T1 transformants were first selected from the background of untransformed seed using a glufosinate selection scheme. Three flats or 30,000 seed were analyzed for each T1 construct. The T1 plants selected above were molecularly characterized and the plants were subsequently transplanted to individual pots and sprayed with various rates of commercial glyphosate as previously described. The dose response of these plants is presented in terms of % visual injury 2 weeks after treatment (WAT). […] An arithmetic mean and standard deviation is presented for each construct used for Arabidopsis transformation. The range in individual response is also indicated in the last column for each rate and transformation. Wildtype, non-transformed Arabidopsis (c.v. Columbia) served as a glyphosate sensitive control.
(§3) Selected T1 Arabidopsis plants which were identified to contain low-copy numbers of transgene insertions (1-3 copies) were self-fertilized to produce a second generation for additional assessment of glyphosate tolerance. […] In the T2 generation hemizygous and homozygous plants were available for testing for each event and therefore were included for each rate of glyphosate tested. Hemizygous plants contain two different alleles at a locus as compared to homozygous plants which contain the same two alleles at a locus. The copy number and ploidy levels of the T2 plants were confirmed using the molecular analysis protocols previously described. Likewise, glyphosate was applied using the methods and rates as previously described. The dose response of the plants is presented in terms of % visual injury 2 weeks after treatment (WAT). […] An arithmetic mean and standard deviation are presented for each construct used for Arabidopsis transformation. The range in individual response is also indicated in the last column for each rate and transformation. Wildtype, non-transformed Arabidopsis (cv. Columbia) served as a glyphosate sensitive control. In addition, plants comprising a glyphosate herbicide resistance gene, dgt-1 (as described in U.S. patent Ser. No. 12/558,351, incorporated herein by reference in its entirety) were included as a positive control.
(§4) Randomly selected T2 Arabidopsis plants which were identified to contain low-copy numbers of transgene insertions (1-3 copies) were self-fertilized to produce a third generation for additional assessment of glyphosate tolerance. Arabidopsis seed from the third generation (T3) were planted and evaluated for glyphosate tolerance using the same protocols as previously described. […] These Events were assayed via LC-MS-MS to confirm that the plants expressed the DGT-14 protein. […] Exemplary resistant T3 Events comprised dgt-14 linked with TraP8 v2 (pDAB105526), TraP9 v2 (pDAB105527), TraP12 v2 (pDAB105528) and TraP13 v2 (pDAB105529).

[2] = system: Arabidopsis transformed with TraP8 v2::dgt-14 (pDAB105526); conditions: for Visual % injury (Ave): 2 weeks after application
Excerpt: as §1, §2, §3, §4

[3] = system: Arabidopsis transformed with TraP13 v2::dgt-14 (pDAB105529); conditions: for Visual % injury (Ave): 2 weeks after application
Excerpt: as §1, §2, §3, §4

[4] = system: Arabidopsis transformed with TraP5 v1::dgt-14 (pDAB102787); conditions: 2 weeks after application
Excerpt: as §1, §2, §3, §4

[5] = system: Arabidopsis transformed with TraP9 v2::dgt-14 (pDAB105527); conditions: for Visual % injury (Ave): 2 weeks after application
Excerpt: as §1, §2, §3, §4

[6] = system: Non-transformed control Arabidopsis (cv. Columbia); conditions: 2 weeks after application
Excerpt: as §1, §2, §3, §4

[7] = system: Arabidopsis transformed with TraP5 v2::dgt-14 (pDAB105525); conditions: 2 weeks after application
Excerpt: as §1, §2, §3, §4

[8] = T2, all concentrations of glyphosate tested
[9] = T3, all concentrations of glyphosate tested

## O=C(O)CNCP(=O)(O)O [glyphosate, N-(phosphonomethyl)glycine]
[1]; T1, 105 g ae/ha
  Visual % injury (Ave): 85.8%
[1]; T1, 420 g ae/ha
  Visual % injury (Ave): 91.0%
[1]; T1, 1680 g ae/ha
  Visual % injury (Ave): 96.5%
[1]; T1, 3360 g ae/ha
  Visual % injury (Ave): 95.8%
[1]; T2, 420 g ae/ha
  Visual % injury (Ave): 85.0%
[1]; T2, 840 g ae/ha
  Visual % injury (Ave): 87.5%
[1]; T2, 1680 g ae/ha
  Visual % injury (Ave): 92.5%
[1]; T2, 3360 g ae/ha
  Visual % injury (Ave): 95.0%
[2]; T1, 105 g ae/ha
  Visual % injury (Ave): 40.0%
[2]; T1, 420 g ae/ha
  Visual % injury (Ave): 23.8%
[2]; T1, 1680 g ae/ha
  Visual % injury (Ave): 66.3%
[2]; T1, 3360 g ae/ha
  Visual % injury (Ave): 26.5%
[2]; T2, 420 g ae/ha
  Visual % injury (Ave): 0.5%
[2]; T2, 840 g ae/ha
  Visual % injury (Ave): 0.0%
[2]; T2, 1680 g ae/ha
  Visual % injury (Ave): 2.5%
[2]; T2, 3360 g ae/ha
  Visual % injury (Ave): 5.0%
[2]; [8]
  injury range: less than 20%
[2]; T3, 420 g ae/ha
  Visual % injury (Ave): 0.0%
[2]; T3, 840 g ae/ha
  Visual % injury (Ave): 1.3%
[2]; T3, 1680 g ae/ha
  Visual % injury (Ave): 0.0%
[2]; T3, 3360 g ae/ha
  Visual % injury (Ave): 4.0%
[2]; [9]
  injury range: less than 20%
[3]; T1, 105 g ae/ha
  Visual % injury (Ave): 34.5%
[3]; T1, 420 g ae/ha
  Visual % injury (Ave): 21.3%
[3]; T1, 1680 g ae/ha
  Visual % injury (Ave): 27.0%
[3]; T1, 3360 g ae/ha
  Visual % injury (Ave): 32.8%
[3]; T2, 420 g ae/ha
  Visual % injury (Ave): 0%
[3]; T2, 1680 g ae/ha
  Visual % injury (Ave): 1.8%
[3]; T2, 3360 g ae/ha
  Visual % injury (Ave): 3.8%
[3]; [8]
  injury range: less than 20%
[3]; T3, 420 g ae/ha
  Visual % injury (Ave): 0.0%
[3]; T3, 1680 g ae/ha
  Visual % injury (Ave): 0.0%
[3]; T3, 3360 g ae/ha
  Visual % injury (Ave): 1.8%
[3]; [9]
  injury range: less than 20%
[4]; T1, 105 g ae/ha
  Visual % injury (Ave): 64.0%
[4]; T1, 420 g ae/ha
  Visual % injury (Ave): 99.0%
[4]; T1, 1680 g ae/ha
  Visual % injury (Ave): 100.0%
[4]; T2, 420 g ae/ha
  Visual % injury (Ave): 90.0%
[4]; T2, 1680 g ae/ha
  Visual % injury (Ave): 88.8%
[4]; T2, 3360 g ae/ha
  Visual % injury (Ave): 94.5%
[4]; T3, 420 g ae/ha
  Visual % injury (Ave): 85.0%
[4]; T3, 1680 g ae/ha
  Visual % injury (Ave): 93.7%
[4]; T3, 3360 g ae/ha
  Visual % injury (Ave): 93.7%
[5]; T1, 105 g ae/ha
  Visual % injury (Ave): 23.0%
[5]; T1, 420 g ae/ha
  Visual % injury (Ave): 37.5%
[5]; T1, 1680 g ae/ha
  Visual % injury (Ave): 48.8%
[5]; T1, 3360 g ae/ha
  Visual % injury (Ave): 63.8%
[5]; T2, 420 g ae/ha
  Visual % injury (Ave): 0.0%
[5]; T2, 1680 g ae/ha
  Visual % injury (Ave): 1.8%
[5]; T2, 3360 g ae/ha
  Visual % injury (Ave): 17.5%
[5]; [8]
  injury range: less than 20%
[5]; T3, 420 g ae/ha
  Visual % injury (Ave): 0.0%
[5]; T3, 1680 g ae/ha
  Visual % injury (Ave): 0.0%
[5]; T3, 3360 g ae/ha
  Visual % injury (Ave): 4.3%
[5]; [9]
  injury range: less than 20%
[6]; T1 study, 105 g ae/ha
  Visual % injury (Ave): 100.0%
[6]; T1 study, 420 g ae/ha
  Visual % injury (Ave): 100.0%
[6]; T1 study, 1680 g ae/ha
  Visual % injury (Ave): 100.0%
[6]; T1 study, 3360 g ae/ha
  Visual % injury (Ave): 100.0%
[6]; T2 study, 420 g ae/ha
  Visual % injury (Ave): 100.0%
[6]; T2 study, 1680 g ae/ha
  Visual % injury (Ave): 100.0%
[6]; T2 study, 3360 g ae/ha
  Visual % injury (Ave): 100.0%
[6]; T3 study, 420 g ae/ha
  Visual % injury (Ave): 100.0%
[6]; T3 study, 1680 g ae/ha
  Visual % injury (Ave): 100.0%
[6]; T3 study, 3360 g ae/ha
  Visual % injury (Ave): 100.0%
[7]; T1, 105 g ae/ha
  Visual % injury (Ave): 93.0%
[7]; T1, 420 g ae/ha
  Visual % injury (Ave): 98.6%
[7]; T1, 1680 g ae/ha
  Visual % injury (Ave): 98.0%
[7]; T1, 3360 g ae/ha
  Visual % injury (Ave): 96.0%
[7]; T2, 420 g ae/ha
  Visual % injury (Ave): 86.3%
[7]; T2, 1680 g ae/ha
  Visual % injury (Ave): 90.0%
[7]; T2, 3360 g ae/ha
  Visual % injury (Ave): 97.0%
[7]; T3, 420 g ae/ha
  Visual % injury (Ave): 93.3%
[7]; T3, 1680 g ae/ha
  Visual % injury (Ave): 93.0%
[7]; T3, 3360 g ae/ha
  Visual % injury (Ave): 91.7%
